Reference: patent publication US12311049B2, “Formulation of ear drops and methods for delivery thereof for treating upper respiratory infections” (priority 2023, dated 2025)

How the values were obtained:
Format in all cases: cell-based
[1] = tested on: SARS-CoV-2 XBB1.5
[2] = tested on: SARS-CoV-2 XBB
[3] = tested on: SARS-CoV-2 BA.1
[4] = tested on: SARS-CoV-2 BA.2
[5] = tested on: SARS-CoV-2 BA.5
[6] = tested on: original WA1 viral strain of SARS-CoV-2; experiment: in vitro infectivity of SARS-CoV-2 to epithelial cells expressing ACE-2 and TMPRSS-2 (virus-NP protein in culture media); settings: MOI 0.01

Substance: hemin
- suppression of replication of SARS-CoV-2 XBB1.5 [1]: significantly suppressed replication
- suppression of replication of SARS-CoV-2 XBB [2]: significantly suppressed replication
- dose response of inhibition of SARS-CoV-2 BA.1 (virus-NP protein levels) [3]: dose-dependent inhibition
- protection of cells against SARS-CoV-2 BA.1 infection [3]: protected cells
- suppression of replication of SARS-CoV-2 BA.2 [4]: significantly suppressed replication
- suppression of replication of SARS-CoV-2 BA.5 [5]: significantly suppressed replication
- suppression of SARS-CoV-2 infection, original WA1 viral strain [6]: markedly suppressed
